Measurements reported in ChEMBL document CHEMBL1158595, “2' biaryl amides as novel and subtype selective M1 agonists. Part II: Further optimization and profiling” (Bioorg Med Chem Lett, 2010).

Tests used:
[1] = biological target: T1, Muscarinic acetylcholine receptor M1 (Homo sapiens) (UniProt P11229); experiment: Intrinsic activity at human muscarinic M1 receptor expressed in CHO cells assessed as effect on acetylcholine-induced intracellular calcium level by FLIPR assay relative to acetylcholine; format: functional, cell-based
T1 sequence (whole entry): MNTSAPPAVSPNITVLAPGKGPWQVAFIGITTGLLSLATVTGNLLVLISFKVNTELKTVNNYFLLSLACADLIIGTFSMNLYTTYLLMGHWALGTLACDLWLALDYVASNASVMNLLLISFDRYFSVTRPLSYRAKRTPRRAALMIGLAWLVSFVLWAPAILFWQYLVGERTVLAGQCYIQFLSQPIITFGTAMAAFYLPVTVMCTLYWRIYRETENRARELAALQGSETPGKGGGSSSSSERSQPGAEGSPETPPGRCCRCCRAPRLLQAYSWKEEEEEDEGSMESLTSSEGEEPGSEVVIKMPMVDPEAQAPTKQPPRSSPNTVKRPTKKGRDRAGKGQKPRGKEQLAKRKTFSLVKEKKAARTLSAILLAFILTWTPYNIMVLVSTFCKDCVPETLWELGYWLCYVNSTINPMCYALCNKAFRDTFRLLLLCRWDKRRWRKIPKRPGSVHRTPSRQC

[2] = biological target: T2, Muscarinic acetylcholine receptor M1 (Homo sapiens, UniProt P11229); experiment: Agonist activity at human muscarinic M1 receptor expressed in CHO cells assessed as effect on acetylcholine-induced intracellular calcium level by FLIPR assay; format: functional, cell-based
T2 sequence (P11229 whole entry): T1 sequence (whole entry)

[3] = biological target: Muscarinic acetylcholine receptor M3 (Homo sapiens, UniProt P20309); experiment: Inhibition of human muscarinic M3 receptor expressed in CHO cells; format: cell-based
[4] = biological target: T3, Muscarinic acetylcholine receptor M4 (Homo sapiens, UniProt P08173); experiment: Inhibition of human muscarinic M4 receptor expressed in CHO cells; format: cell-based
T3 sequence (P08173 whole entry): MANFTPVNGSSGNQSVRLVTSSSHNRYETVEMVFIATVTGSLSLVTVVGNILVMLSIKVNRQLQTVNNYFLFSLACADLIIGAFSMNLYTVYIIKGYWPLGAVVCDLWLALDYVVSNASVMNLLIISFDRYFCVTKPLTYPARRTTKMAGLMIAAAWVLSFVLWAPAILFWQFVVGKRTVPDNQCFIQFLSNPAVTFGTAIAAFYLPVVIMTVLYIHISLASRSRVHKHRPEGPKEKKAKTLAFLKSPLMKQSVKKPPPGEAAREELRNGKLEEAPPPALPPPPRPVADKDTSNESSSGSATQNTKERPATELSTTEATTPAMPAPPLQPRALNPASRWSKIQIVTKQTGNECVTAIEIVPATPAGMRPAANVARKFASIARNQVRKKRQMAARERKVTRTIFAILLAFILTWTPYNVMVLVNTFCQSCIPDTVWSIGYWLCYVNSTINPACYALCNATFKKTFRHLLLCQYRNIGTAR

[5] = biological target: T4, Muscarinic acetylcholine receptor M5 (Homo sapiens, UniProt P08912); experiment: Inhibition of human muscarinic M5 receptor expressed in CHO cells; format: cell-based
T4 sequence (P08912 whole entry): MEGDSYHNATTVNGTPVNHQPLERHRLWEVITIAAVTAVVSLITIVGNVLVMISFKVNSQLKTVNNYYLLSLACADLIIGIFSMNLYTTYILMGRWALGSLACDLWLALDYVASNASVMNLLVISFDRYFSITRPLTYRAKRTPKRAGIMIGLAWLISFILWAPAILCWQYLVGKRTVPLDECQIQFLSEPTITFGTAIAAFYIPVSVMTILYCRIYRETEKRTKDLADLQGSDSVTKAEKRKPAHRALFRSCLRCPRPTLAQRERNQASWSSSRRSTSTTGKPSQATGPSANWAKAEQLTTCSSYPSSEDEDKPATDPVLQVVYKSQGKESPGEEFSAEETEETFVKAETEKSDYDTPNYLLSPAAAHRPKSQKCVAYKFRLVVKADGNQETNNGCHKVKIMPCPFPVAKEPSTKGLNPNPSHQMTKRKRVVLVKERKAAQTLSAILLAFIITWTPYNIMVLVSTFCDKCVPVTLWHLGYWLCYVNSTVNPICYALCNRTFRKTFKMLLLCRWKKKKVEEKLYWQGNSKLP

[6] = biological target: T5, Muscarinic acetylcholine receptor M2 (Homo sapiens, UniProt P08172); experiment: Inhibition of human muscarinic M2 receptor expressed in CHO cells; format: cell-based
T5 sequence (P08172 whole entry): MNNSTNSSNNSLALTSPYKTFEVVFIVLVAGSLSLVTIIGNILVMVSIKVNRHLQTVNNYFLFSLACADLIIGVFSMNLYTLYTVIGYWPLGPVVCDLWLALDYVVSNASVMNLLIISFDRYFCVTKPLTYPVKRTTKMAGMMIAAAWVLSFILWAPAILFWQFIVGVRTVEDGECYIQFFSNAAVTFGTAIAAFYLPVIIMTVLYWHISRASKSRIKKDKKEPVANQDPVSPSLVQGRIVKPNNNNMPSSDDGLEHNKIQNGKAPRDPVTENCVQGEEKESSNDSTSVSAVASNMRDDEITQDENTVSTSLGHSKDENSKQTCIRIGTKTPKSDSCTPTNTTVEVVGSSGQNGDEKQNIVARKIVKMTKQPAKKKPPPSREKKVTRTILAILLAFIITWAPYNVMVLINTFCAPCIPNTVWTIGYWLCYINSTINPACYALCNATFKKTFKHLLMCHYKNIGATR

[7] = biological target: Muscarinic acetylcholine receptors; M1 & M2 (Homo sapiens) (UniProt P11229+P08172); experiment: Selectivity ratio of human muscarinic M2 receptor to human muscarinic M1 receptor
[8] = biological target: Muscarinic acetylcholine receptor M1 and M3 (Homo sapiens) (UniProt P20309+P11229); experiment: Selectivity ratio of human muscarinic M3 receptor to human muscarinic M1 receptor
Homo sapiens [9] = species on record: Homo sapiens; experiment: Selectivity ratio of human muscarinic M4 receptor to human muscarinic M1 receptor
Homo sapiens [10] = species on record: Homo sapiens; experiment: Selectivity ratio of human muscarinic M5 receptor to human muscarinic M1 receptor

Chain of Muscarinic acetylcholine receptor M3 (P20309 whole entry): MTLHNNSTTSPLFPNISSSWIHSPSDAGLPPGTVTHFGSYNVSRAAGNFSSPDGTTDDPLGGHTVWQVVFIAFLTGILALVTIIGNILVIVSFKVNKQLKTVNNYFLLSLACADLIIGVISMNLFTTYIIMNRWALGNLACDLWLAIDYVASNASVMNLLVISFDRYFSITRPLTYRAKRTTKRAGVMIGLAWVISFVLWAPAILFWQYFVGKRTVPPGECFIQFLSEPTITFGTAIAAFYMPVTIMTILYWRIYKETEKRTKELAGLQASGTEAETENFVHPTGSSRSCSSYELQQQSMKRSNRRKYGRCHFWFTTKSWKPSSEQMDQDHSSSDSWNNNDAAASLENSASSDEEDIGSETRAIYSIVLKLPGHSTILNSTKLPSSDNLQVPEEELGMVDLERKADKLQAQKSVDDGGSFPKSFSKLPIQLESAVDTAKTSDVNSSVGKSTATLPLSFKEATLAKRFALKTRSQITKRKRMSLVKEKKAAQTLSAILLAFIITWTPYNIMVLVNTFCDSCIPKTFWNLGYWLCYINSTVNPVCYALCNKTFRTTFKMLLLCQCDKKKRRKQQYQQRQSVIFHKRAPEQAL
Chain of Muscarinic acetylcholine receptor M1 and M3 (Homo sapiens) (P20309 whole entry, looked up, one chain of several): as the sequence (P20309 whole entry) above

Intrinsic activity [1] | EC50 [2] | SMILES | other results
109% | 0.0631 µM | O=C(NCC1CCNCC1)c1c(Cl)cccc1-c1cccc(Cl)c1 | –
74% | 0.158 µM | O=C(Cc1ccccc1-c1cccc(Cl)c1)NC1CCNCC1 | IC50 [3]: 0.126 µM
87% | 0.0631 µM | O=C(NCC1(F)CCNCC1)c1c(F)cccc1-c1cccc(Cl)c1 | IC50 [3]: 1.26 µM
52% | 3.16 µM | O=C(NCCC1CCNCC1)c1ccccc1-c1cccc(Cl)c1 | –
– | > 10 µM | O=C(CCC1CCNCC1)c1ccccc1-c1cccc(Cl)c1 | –
– | > 10 µM | O=S(=O)(NCC1CCNCC1)c1ccccc1-c1cccc(Cl)c1 | –
51% | 1.58 µM | CS(=O)(=O)N(Cc1c(F)cccc1-c1cccc(Cl)c1)CC1CCNCC1 | –
91% | 0.00316 µM | O=C(NCC1=CCNCC1)c1c(F)cccc1-c1cccc(Cl)c1 | IC50 [4]: 7.94 µM; IC50 [5]: 1.58 µM; IC50 [6]: 1.26 µM; IC50 [3]: 3.16 µM
– | > 10 µM | Clc1cccc(-c2ccccc2CNCC2CCNCC2)c1 | –
81% | 0.501 µM | O=C(NCc1ccccc1-c1cccc(Cl)c1)C1CCNCC1 | IC50 [3]: 2 µM
79% | 0.1 µM | O=C(NCC1CCNCC1)c1ccc(Cl)cc1-c1cccc(Cl)c1 | –
77% | 0.158 µM | Cc1ccc(C(=O)NCC2CCNCC2)c(-c2cccc(Cl)c2)c1 | –
74% | 0.158 µM | O=C(NCC1=C(F)CNCC1)c1c(-c2cccc(Cl)c2)ccc(Cl)c1F | IC50 [3]: 10 µM
65% | 0.501 µM | Fc1cccc(-c2cc(Cl)ccc2Cl)c1-c1nc(C2CCNCC2)no1 | IC50 [3]: 3.98 µM
43% | 7.94 µM | O=C(CC1CCNCC1)Nc1ccccc1-c1cccc(Cl)c1 | –
90% | 0.0158 µM | O=C(NCC1CCNCC1)c1c(F)cccc1-c1cccc(Cl)c1 | –
0% | > 10 µM | O=C(NCC1CCNCC1)c1sccc1-c1cccc(Cl)c1 | –
80% | 0.0251 µM | O=C(NCC1CCNCC1)c1c(-c2cccc(Cl)c2)ccc(Cl)c1F | –
7.8% | 0.0501 µM | CN(C(=O)Cc1ccccc1-c1cccc(Cl)c1)C1CCNCC1 | –
55% | 1 µM | Clc1cccc(-c2ccccc2/C=C/CC2CCNCC2)c1 | IC50 [3]: 0.0126 µM
92% | 0.02 µM | C[C@H]1CNCC[C@H]1CNC(=O)c1c(F)cccc1-c1cccc(Cl)c1 (relative stereo) | IC50 [3]: 2.51 µM
78% | 0.0501 µM | O=C(NCC1CCNCC1)c1cc(F)ccc1-c1cccc(Cl)c1 | –
– | > 10 µM | Clc1cccc(-c2ccccc2COCC2CCNCC2)c1 | –
74% | 0.1 µM | O=C(NCC1CCNCC1)c1cc(Cl)ccc1-c1cccc(Cl)c1 | –
67% | 1 µM | Cc1ccc(-c2cccc(Cl)c2)c(C(=O)NCC2CCNCC2)c1 | –

Intrinsic activity [1] | EC50 [2] | SMILES | other results
– | > 10 µM | CN(C(=O)CC1CCNCC1)c1ccccc1-c1cccc(Cl)c1 | –
24% | > 10 µM | O=C(NCC1CCNCC1)c1ccc(F)cc1-c1cccc(Cl)c1 | –
45% | 5.01 µM | O=C(NCC1CCNCC1)c1cccc(F)c1-c1cccc(Cl)c1 | –
– | > 10 µM | CN(CC1CCNCC1)S(=O)(=O)c1ccccc1-c1cccc(Cl)c1 | –
20% | > 10 µM | O=C(NCC1CCNCC1)c1cnccc1-c1cccc(Cl)c1 | –
– | > 10 µM | Clc1cccc(-c2ccccc2OCCC2CCNCC2)c1 | –
0% | > 10 µM | Cn1cc(-c2cccc(Cl)c2)c(C(=O)NCC2CCNCC2)n1 | –
– | > 10 µM | Fc1cccc(-c2cccc(Cl)c2)c1-c1noc(CC2CCNCC2)n1 | –
72% | 0.158 µM | CC1CNCC=C1CNC(=O)c1c(-c2cccc(Cl)c2)ccc(Cl)c1F (configuration not stated) | –
0% | > 10 µM | O=C(NCC1CCNCC1)c1cccnc1-c1cccc(Cl)c1 | –
14% | > 10 µM | O=C(NCC1CCNCC1)c1cccc(Cl)c1-c1cccc(Cl)c1 | –
92% | 0.0398 µM | CC[C@H]1CNCC[C@@H]1CNC(=O)c1c(F)cccc1-c1cccc(Cl)c1 | IC50 [3]: 10 µM
– | 0.251 µM | O=C(NCC1CCNCC1)c1ccccc1-c1nc(Cl)cs1 | Ratio [7]: 100; Ratio [8]: 100; EC50 [4]: > 10 µM; EC50 [5]: > 10 µM; Ratio (Homo sapiens [9]): 100; EC50 [6]: > 10 µM; Ratio (Homo sapiens [10]): 100; EC50 [3]: > 10 µM
18% | > 10 µM | O=C(NCC1CCNCC1)c1ncccc1-c1cccc(Cl)c1 | –
– | > 10 µM | Fc1cccc(-c2cccc(Cl)c2)c1-c1noc(C2CCNCC2)n1 | –
34% | > 10 µM | Cc1cccc(C(=O)NCC2CCNCC2)c1-c1cccc(Cl)c1 | –
37% | > 10 µM | Cc1cccc(-c2cccc(Cl)c2)c1C(=O)NCC1CCNCC1 | –
100% | 0.001 µM | OC(CCC1CCNCC1)c1ccccc1-c1cccc(Cl)c1 (configuration not stated) | IC50 [3]: 0.002 µM
68% | 0.158 µM | O=C(NC[C@H]1CCNC[C@H]1F)c1c(F)cccc1-c1cccc(Cl)c1 | IC50 [3]: 10 µM
– | > 10 µM | O=C(OCC1CCNCC1)c1ccccc1-c1cccc(Cl)c1 | –
92% | 0.0316 µM | O=C(NCC1CCNCC1)c1c(F)cccc1-c1cc(Cl)ccc1Cl | IC50 [3]: 1.26 µM
70% | 0.398 µM | CC(=O)N(Cc1ccccc1-c1cccc(Cl)c1)CC1CCNCC1 | –
71% | 0.0631 µM | O=S(=O)(CCC1CCNCC1)c1ccccc1-c1cccc(Cl)c1 | IC50 [3]: 0.02 µM
3% | > 10 µM | O=C(NCC1CCNCC1)c1ccncc1-c1cccc(Cl)c1 | –
– | > 10 µM | CN(Cc1ccccc1-c1cccc(Cl)c1)C(=O)C1CCNCC1 | –
